Biological target: T1, rat CB-1 receptor (Rattus norvegicus, UniProt P20272)
T1 construct: The tissue obtained from the brain of SD rats was homogenized; from tissue; host or cells: SD rat brain (membrane pellet of homogenate)
Test: rat CB-1 receptor binding protocol with [3H]CP-55940 on SD rat brain tissue
Conditions: [3H]CP-55940 displacement, SD rat brain homogenate, 30° C., 60 min; read-out: IC50 (binding affinity for CB1 receptor)

T1 sequence (P20272 whole entry): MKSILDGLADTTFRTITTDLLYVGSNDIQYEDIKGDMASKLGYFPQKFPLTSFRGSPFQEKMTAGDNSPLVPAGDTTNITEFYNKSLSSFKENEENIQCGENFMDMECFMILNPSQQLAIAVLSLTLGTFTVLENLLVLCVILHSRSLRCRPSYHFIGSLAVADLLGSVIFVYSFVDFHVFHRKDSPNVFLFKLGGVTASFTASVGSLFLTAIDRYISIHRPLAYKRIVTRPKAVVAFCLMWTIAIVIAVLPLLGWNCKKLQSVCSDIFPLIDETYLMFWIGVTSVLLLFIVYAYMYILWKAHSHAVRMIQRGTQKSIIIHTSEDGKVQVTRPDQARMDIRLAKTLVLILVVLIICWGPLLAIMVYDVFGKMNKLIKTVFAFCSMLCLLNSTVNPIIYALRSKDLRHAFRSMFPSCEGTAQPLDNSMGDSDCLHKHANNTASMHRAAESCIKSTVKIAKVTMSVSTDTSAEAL

Row | Structure (SMILES) | IC50
1 | CCCC(=O)NCNC(=O)c1nn(-c2ccc(Cl)cc2Cl)c(-c2ccc(Cl)cc2)c1C [Example 36, N-(Butyramidomethyl)-5-(4-chlorophenyl)-1-(2,4-dichlorophenyl)-4-methyl-1H-pyrazole-3-carboxamide] | 905 nM
2 | Cc1c(C(=O)NCNC(=O)C(C)C)nn(-c2ccc(Cl)cc2Cl)c1-c1ccc(Cl)cc1 [Example 37, 5-(4-Chlorophenyl)-1-(2,4-dichlorophenyl)-N-(isobutyramidomethyl)-4-methyl-1H-pyrazole-3-carboxamide] | 951 nM
3 | Cc1c(C(=O)NCNC(=O)CC2CCCC2)nn(-c2ccc(Cl)cc2Cl)c1-c1ccc(Cl)cc1 [Example 41, 5-(4-Chlorophenyl)-N-((2-cyclopentylacetamido)methyl)-1-(2,4-dichlorophenyl)-4-methyl-1H-pyrazole-3-carboxamide] | 138 nM

Stronger by IC50, values ahead:

Row | IC50 | Structure (SMILES)
4 | 102 nM | Cc1c(C(=O)NCNC(=O)C2CCCC(C)C2)nn(-c2ccc(Cl)cc2Cl)c1-c1ccc(Cl)cc1 (stereo not drawn) [Example 40, 5-(4-Chlorophenyl)-1-(2,4-dichlorophenyl)-4-methyl-N-((3-methylcyclohexanecarboxamido)methyl)-1H-pyrazole-3-carboxamide]
5 | 75.6 nM | Cc1c(C(=O)NCNC(=O)C2CCCCCC2)nn(-c2ccc(Cl)cc2Cl)c1-c1ccc(Cl)cc1 [Example 38, 5-(4-Chlorophenyl)-N-(cycloheptanecarboxamidomethyl)-1-(2,4-dichlorophenyl)-4-methyl-1H-pyrazole-3-carboxamide]
6 | 46.5 nM | Cc1c(C(=O)NCNC(=O)CC2CCCCC2)nn(-c2ccc(Cl)cc2Cl)c1-c1ccc(Cl)cc1 [Example 39, 5-(4-Chlorophenyl)-N-((2-cyclohexylacetamido)methyl)-1-(2,4-dichlorophenyl)-4-methyl-1H-pyrazole-3-carboxamide]
